Reference: patent US20020103105A1, “Use of selective dopamine D4 receptor agonists for treating sexual dysfunction” (priority 2000, published 2002)
Several values for one entry are separate records, joined by “and”; a condition that tells them apart may be missing. Equal entries are not always repeated. Where two headings read alike, the source gives them in different places. One block for each molecule: values may come before it.

Legend:
[1] = test system: emesis in male Fitch ferrets; assay: Emesis model in ferrets; type: in vivo; details: ferret, subcutaneous; for Incidence (%) of emesis: 90 minutes observation; for induction of emesis (in words): all doses tested
Protocol: Male Fitch ferrets (body weights 1.0-1.5 kg) were fasted overnight before experimentation. Animals were placed individually in observation cages following subcutaneous administration of drug and observed for drug-induced nausea and emesis for a period of 90 minutes following drug injection. Nausea was characterized by behaviors such as licking, gagging, backing, head burying, and intense abdominal grooming. Emesis was usually preceded by these behaviors and was characterized by rhythmic abdominal contractions which were associated with vomiting or retching movement. The number of ferrets induced to emesis was recorded and expressed as incidence (%) in Tables 5-7.

[2] = test system: penile erection in Wistar rats; assay: Rat penile erection model; type: in vivo; details: subcutaneous; for Incidence (%) of penile erections: 60 minutes observation; for facilitation of penile erections in rats (in words, with effective dose range): versus vehicle
Protocol: Wistar rats were used as a primary animal model to study penile erection in vivo. All experiments were carried out between 9:00 AM and 3:00 PM in a diffusely illuminated testing room with a red light. The rats were weighed and allowed to adapt to the testing room for 60 minutes before the beginning of experiments. Rats were placed in individual transparent cages (20×30×30 cm) after subcutaneous drug injection. The number of penile erections was recorded by direct observation for a period of 60 minutes after drug dosing.

dopamine D2 receptor = biological target: T1, dopamine D2 receptor (Homo sapiens, UniProt P14416); assay: Dopamine D2 binding assay ([3H]-spiperone, membranes of transfected A9L cells, run by Cerep); details: recombinant human D2, [3H]-spiperone 0.3 nM
T1 construct: host or cells: A9L cells (membranes)
T1 sequence (P14416 whole entry): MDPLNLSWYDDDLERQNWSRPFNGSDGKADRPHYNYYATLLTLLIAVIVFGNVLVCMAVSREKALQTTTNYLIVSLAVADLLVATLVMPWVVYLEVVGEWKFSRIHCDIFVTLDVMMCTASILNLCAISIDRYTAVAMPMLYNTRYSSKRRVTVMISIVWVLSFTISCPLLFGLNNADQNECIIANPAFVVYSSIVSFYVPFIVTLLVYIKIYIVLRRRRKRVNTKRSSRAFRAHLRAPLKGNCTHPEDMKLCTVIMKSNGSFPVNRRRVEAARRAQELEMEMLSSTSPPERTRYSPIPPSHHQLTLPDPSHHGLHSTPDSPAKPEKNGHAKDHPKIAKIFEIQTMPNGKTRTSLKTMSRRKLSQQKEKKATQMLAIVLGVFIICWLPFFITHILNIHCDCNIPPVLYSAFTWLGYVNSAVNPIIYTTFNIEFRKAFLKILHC
Protocol: (§1) The dopamine D2 and D4 binding assays, used to determine binding affinities (Ki) illustrated in Table 1, were conducted according to standard procedures known to those in the art and are summarized herein.
(§2) Briefly, receptor binding assays at the dopamine D2 and D4 receptors were carried out in membranes from cell lines expressing the recombinant human subtypes. […] Specific binding was defined as the difference between total binding and nonspecific binding. Ki values were determined using the Cheng-Prusoff equation and are illustrated in Table 1.

dopamine D4 receptor [3] = biological target: T2, dopamine D4 receptor (Homo sapiens, UniProt P21917); assay: Dopamine D4 binding assay ([3H]-spiperone, membranes of transfected CHO cells, run by Cerep); design: host or cells: CHO cells (membranes); details: recombinant human D4, [3H]-spiperone 0.5 nM
T2 sequence (P21917 1-419): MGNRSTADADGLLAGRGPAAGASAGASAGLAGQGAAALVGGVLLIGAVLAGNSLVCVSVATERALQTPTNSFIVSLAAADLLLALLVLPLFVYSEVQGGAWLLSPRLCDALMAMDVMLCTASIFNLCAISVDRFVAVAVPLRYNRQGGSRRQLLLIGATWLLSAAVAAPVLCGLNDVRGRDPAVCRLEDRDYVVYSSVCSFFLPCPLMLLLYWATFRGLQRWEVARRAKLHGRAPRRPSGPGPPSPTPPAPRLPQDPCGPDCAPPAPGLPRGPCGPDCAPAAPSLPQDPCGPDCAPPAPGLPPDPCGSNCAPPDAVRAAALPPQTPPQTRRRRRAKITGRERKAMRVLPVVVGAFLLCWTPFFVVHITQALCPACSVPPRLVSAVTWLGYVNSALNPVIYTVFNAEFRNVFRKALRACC
Protocol: as §1, §2

dopamine D4 receptor [4] = biological target: T2, dopamine D4 receptor; details: cited literature; cited from earlier work
human D4 receptor [5] = biological target: T3, human D4 receptor (Homo sapiens, UniProt P21917); assay: FLIPR calcium assay in HEK293 cells expressing human D4 receptor co-transfected with Gqo5 chimera; type: cell-based; design: expressed in transfected cells; host or cells: HEK293 cells, stably transfected, with Gqo5 chimera
T3 sequence (P21917 1-419): T2 sequence (P21917 1-419)
Protocol: The FLIPR assay is a functional assay that can be conducted in HEK293 cells expressing the human D4 receptor, co-transfected with the Gqo5 protein chimera. Expression of the G-protein chimera allows for the mobilization of intracellular calcium after activation of the D4 receptor. Cells are prepared by plating the stably transfected D4-HEK293 cells into each well of 96 well plates. Cells are cultured until they reach confluence (approximately 48 hours). Media is removed from the plate and media containing the fluorescent calcium detecting dye Fluo-4 is added. Cells are incubated at room temperature for one hour. Cells are then washed three times with phosphate buffered saline and 150 μl PBS is added. Compounds to be tested are diluted in a second 96-well plate. The plate containing the cells is placed in fluorescent plate reader (FLIPR) and the reaction is begun by adding 50 μl of compound solution to all the wells simultaneously. Fluorescent signal is measured for 60 seconds sampling at 1 second intervals. The signal derived from 10 μM dopamine is used as 100% and a compound dose-response curve is normalized to determine the percent efficacy relative to dopamine. Dose response curves are analyzed to determine EC50 (nM).

human D4 receptor [6] = biological target: T3, human D4 receptor; design: expressed in transfected cells; details: CHO cells, read-out: EC50 inhibition of forskolin-stimulated cAMP accumulation; cited from earlier work

Compound: CN1CCc2cccc3c2C1Cc1ccc(O)c(O)c1-3 (stereo not shown) [Apomorphine, 5,6,6a,7-tetrahydro-6-methyl-4H-dibenzo[de,g]quinoline-10,11-diol]
- Incidence (%) of emesis ([1]; 0.1 μmol/kg): 32%
- Incidence (%) of emesis ([1]; 0.3 μmol/kg): 83% and 82%
- Incidence (%) of emesis ([1]; 0.3 μmol/kg, listed as apomorphine): 83%
- Incidence (%) of emesis ([1]; 1.0 μmol/kg): 48%
- Incidence (%) of emesis ([1]; 3.0 μmol/kg): 32%
- Incidence (%) of emesis ([1]; 10.0 μmol/kg): 32%
- induction of emesis (in words) [1]: induced emesis at all doses
- Incidence (%) of penile erections ([2]; 0.003 μmol/kg): 28%
- Incidence (%) of penile erections ([2]; 0.01 μmol/kg): 56%
- Incidence (%) of penile erections ([2]; 0.03 μmol/kg): 69%
- Incidence (%) of penile erections ([2]; 0.1 μmol/kg): 86% and 90% and 92%
- Incidence (%) of penile erections ([2]; 0.1 μmol/kg, listed as apomorphine): 86% and 90%
- Incidence (%) of penile erections ([2]; 0.3 μmol/kg): 66%
- Incidence (%) of penile erections ([2]; 1.0 μmol/kg): 25%
- facilitation of penile erections in rats (in words, with effective dose range) [2]: significant facilitation of penile erections in rats for doses 0.01 μmol/kg to 0.3 μmol/kg

- Ki (dopamine D2 receptor): > 1000 nM
Compound: Cc1cccc(C(=O)NCN2CCN(c3ccccc3C#N)CC2)c1 [N-{[4-(2-cyanophenyl)-1-piperazinyl]methyl}-3-methylbenzamide]
- Incidence (%) of emesis ([1]; 0.1 μmol/kg): 0%
- Incidence (%) of emesis ([1]; 0.3 μmol/kg): 0%
- Incidence (%) of emesis ([1]; 1.0 μmol/kg): 0%
- Incidence (%) of emesis ([1]; 3.0 μmol/kg): 0%
- induction of emesis (in words) [1]: did not induce emesis at any dose
- Incidence (%) of penile erections ([2]; 0.03 μmol/kg): 42%
- Incidence (%) of penile erections ([2]; 0.1 μmol/kg): 71%
- Incidence (%) of penile erections ([2]; 0.3 μmol/kg): 79%
- Incidence (%) of penile erections ([2]; 1.0 μmol/kg): 68%
- facilitation of penile erections in rats (in words, with effective dose range) [2]: significant facilitation of penile erections in rats for doses 0.1 μmol/kg to 1.0 μmol/kg

Compound: Fc1ccc2[nH]c(CN3CCN(c4ccccn4)CC3)cc2c1 [5-fluoro-2-{[4-(2-pyridinyl)-1-piperazinyl]methyl}-1H-indole]
- Ki (dopamine D2 receptor): > 1000 nM
- Ki (dopamine D4 receptor [3]): 2.6 nM
- Incidence (%) of emesis ([1]; 0.1 μmol/kg): 0%
- Incidence (%) of emesis ([1]; 0.3 μmol/kg): 0%
- Incidence (%) of emesis ([1]; 1.0 μmol/kg): 0%
- Incidence (%) of emesis ([1]; 3.0 μmol/kg): 0%
- induction of emesis (in words) [1]: did not induce emesis at any dose
- Incidence (%) of penile erections ([2]; 0.3 μmol/kg): 60%
- Incidence (%) of penile erections ([2]; 1.0 μmol/kg): 90%
- Incidence (%) of penile erections ([2]; 3.0 μmol/kg): 90%
- facilitation of penile erections in rats (in words, with effective dose range) [2]: significant facilitation of penile erections in rats for doses 1.0 μmol/kg and 3.0 μmol/kg
- Ki (dopamine D4 receptor [4]): 6 nM
- selectivity for dopamine D4 receptor compared to D2 receptor (literature) (dopamine D4 receptor [4]): > 100 fold
- EC50 (human D4 receptor [5]; D4-HEK293 cells, Gqo5): 32 nM
- Emax (human D4 receptor [5]; HEK293, relative to 10 μM dopamine = 100%, read-out: Maximum Response FLIPR): 46%
- agonism at D4 receptor in FLIPR assay (in words) (human D4 receptor [5]; Table A data): agonists
- EC50 (human D4 receptor [6]): 5.8 nM
